In publication PMC6173509, “C-3- and C-4-Substituted Bicyclic Coumarin Sulfamates as Potent Steroid Sulfatase Inhibitors” (ACS Omega, 2018):

Legend:
steroid sulfatase (STS) [1] = biological target: T1, steroid sulfatase (STS) (Homo sapiens, UniProt P08842); assay: STS inhibition in intact MCF-7 breast cancer cells; type: cell-based; set-up: endogenous in cells; host or cells: MCF-7 breast cancer cells; settings: for inhibition at 0.1 µM: MCF7, read-out: % Inhibition of STS Activity in Intact MCF-7 Breast Cancer Cells at 0.1 μM; for inhibition at 1 µM: MCF7, read-out: % Inhibition of STS Activity in Intact MCF-7 Breast Cancer Cells at 1 μM; for inhibition at 10 µM: MCF7, read-out: % Inhibition of STS Activity in Intact MCF-7 Breast Cancer Cells at 10 μM; for IC50: 3 nM E1S; for inhibition at 0.01 µM: MCF7, read-out: % Inhibition of STS Activity in Intact MCF-7 Breast Cancer Cells at 0.01 μM
T1 sequence (P08842 22-583): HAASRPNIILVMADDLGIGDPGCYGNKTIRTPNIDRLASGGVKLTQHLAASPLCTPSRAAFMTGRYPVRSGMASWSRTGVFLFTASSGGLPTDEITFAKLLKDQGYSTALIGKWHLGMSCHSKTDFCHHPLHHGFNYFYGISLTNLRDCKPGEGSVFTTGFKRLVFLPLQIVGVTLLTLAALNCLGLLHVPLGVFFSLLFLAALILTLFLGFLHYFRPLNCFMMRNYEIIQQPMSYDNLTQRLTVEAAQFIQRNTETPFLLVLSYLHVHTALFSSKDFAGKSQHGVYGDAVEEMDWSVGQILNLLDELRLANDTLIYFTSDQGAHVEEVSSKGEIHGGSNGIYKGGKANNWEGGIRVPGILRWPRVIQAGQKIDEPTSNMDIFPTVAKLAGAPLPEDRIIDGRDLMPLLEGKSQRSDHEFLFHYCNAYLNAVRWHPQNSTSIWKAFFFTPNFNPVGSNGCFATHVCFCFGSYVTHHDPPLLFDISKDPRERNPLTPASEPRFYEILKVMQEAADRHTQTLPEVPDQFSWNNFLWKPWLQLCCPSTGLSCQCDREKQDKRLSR

steroid sulfatase (STS) [2] = biological target: T1, steroid sulfatase (STS); assay: STS inhibition in placental microsomes; type: biochemical; set-up: a placental microsomal preparation from a sulfatase-positive human placenta from a normal term pregnancy; from tissue; host or cells: human placenta (microsomal preparation); settings: 20 μM E1S; for inhibition at 0.01 µM: 0.01 μM inhibitor; for inhibition at 0.1 µM: 0.1 μM inhibitor; for inhibition at 1 µM: 1 μM inhibitor; for inhibition at 10 µM: 10 μM inhibitor

Row | SMILES | inhibition at 0.1 µM (steroid sulfatase (STS) [1]) [%] | inhibition at 1 µM (steroid sulfatase (STS) [1]) [%] | inhibition at 10 µM (steroid sulfatase (STS) [1]) [%] | inhibition at 0.01 µM (steroid sulfatase (STS) [2]) [%] | inhibition at 0.1 µM (steroid sulfatase (STS) [2]) [%] | inhibition at 1 µM (steroid sulfatase (STS) [2]) [%] | inhibition at 10 µM (steroid sulfatase (STS) [2]) [%] | IC50 (steroid sulfatase (STS) [2]) [nM] | IC50 (steroid sulfatase (STS) [1]) [nM] | inhibition at 0.01 µM (steroid sulfatase (STS) [1]) [%]
1 | CCCCc1cc(=O)oc2cc(OS(N)(=O)=O)ccc12 [compound 9, 4-Butylcoumarin-7-O-sulfamate] | 85 | 91 | 93 | 10 | 49 | 91 | 98 | 102 | – | –
2 | CCCCCc1cc(=O)oc2cc(OS(N)(=O)=O)ccc12 [compound 10, 4-Pentylcoumarin-7-O-sulfamate] | 88 | 92 | 95 | 22 | 70 | 97 | 99 | 40 | 10 | 52
3 | CCCCCCc1cc(=O)oc2cc(OS(N)(=O)=O)ccc12 [compound 11, 4-Hexylcoumarin-7-O-sulfamate] | 87 | 90 | 93 | 6 | 70 | 97 | 99 | 52 | – | –
4 | CCCCCCCc1cc(=O)oc2cc(OS(N)(=O)=O)ccc12 [compound 12, 4-Heptylcoumarin-7-O-sulfamate] | 93 | 95 | 99 | 8 | 64 | 97 | 99 | 90 | – | –
5 | CCCCCCCCc1cc(=O)oc2cc(OS(N)(=O)=O)ccc12 [compound 13, 4-Octylcoumarin-7-O-sulfamate] | 90 | 97 | 99 | 28 | 74 | 97 | 99 | 68 | – | –
6 | CCCCCCCCCc1cc(=O)oc2cc(OS(N)(=O)=O)ccc12 [compound 14, 4-Nonylcoumarin-7-O-sulfamate] | 96 | 98 | 100 | 18 | 79 | 97 | 99 | 60 | – | 90
7 | CCCCCCCCCCc1cc(=O)oc2cc(OS(N)(=O)=O)ccc12 [compound 15, 4-Decylcoumarin-7-O-sulfamate] | 95 | 98 | 100 | 17 | 74 | 96 | 99 | 60 | – | 86
8 | CCCCCCCCCCCc1cc(=O)oc2cc(OS(N)(=O)=O)ccc12 [compound 16, 4-Undecylcoumarin-7-O-sulfamate] | – | – | – | 8 | 56 | 92 | 97 | 73 | – | –
9 | CCCCCCCCCCCCc1cc(=O)oc2cc(OS(N)(=O)=O)ccc12 [compound 17, 4-Dodecylcoumarin-7-O-sulfamate] | 67 | 95 | 98 | 17 | 68 | 89 | 96 | 45 | – | 22
10 | CCCCCCCCCCCCCc1cc(=O)oc2cc(OS(N)(=O)=O)ccc12 [compound 18, 4-Tridecylcoumarin-7-O-sulfamate] | 96 | – | – | 7 | 55 | 80 | 91 | 85 | 3.2 | 72
11 | CC(C)c1cc(=O)oc2cc(OS(N)(=O)=O)ccc12 [compound 19, 4-(Prop-2-yl)coumarin-7-O-sulfamate] | – | – | – | – | 86 | 90 | 94 | – | – | –
12 | CC(C)Cc1cc(=O)oc2cc(OS(N)(=O)=O)ccc12 [compound 20, 4-(1′,1′-Dimethylethyl)coumarin-7-O-sulfamate] | – | – | – | – | 19 | 97 | – | – | – | –
13 | NS(=O)(=O)Oc1ccc2c(CCl)cc(=O)oc2c1 [compound 21, 4-Chloromethylcoumarin-7-O-sulfamate] | 33 | 82 | 92 | 10 | 19 | 59 | 94 | 600 | 220 | 6
14 | NS(=O)(=O)Oc1ccc2c(-c3ccccc3)cc(=O)oc2c1 [compound 22, 4-Phenylcoumarin-7-O-sulfamate] | 36 | 79 | 87 | – | – | – | – | 200 | – | –
15 | NS(=O)(=O)Oc1ccc2c(Cc3ccccc3)cc(=O)oc2c1 [compound 23, 4-Benzylcoumarin-7-O-sulfamate] | 55 | 70 | 84 | 2 | 61 | 96 | 99 | 64 | 75 | 8
16 | NS(=O)(=O)Oc1ccc2c(CCc3ccccc3)cc(=O)oc2c1 [compound 24, 4-(2-Phenylethyl)coumarin-7-O-sulfamate] | 84 | 95 | 98 | 8 | 53 | 93 | 98 | 82 | 18 | 39
17 | CCc1ccc(-c2cc(=O)oc3cc(OS(N)(=O)=O)ccc23)cc1 [compound 25, 4-(4-Ethylphenyl)coumarin-7-O-sulfamate] | 24 | 73 | 84 | – | – | 27 | 85 | 2600 | 350 | 6
18 | NS(=O)(=O)Oc1ccc2c(CC34CC5CC(CC(C5)C3)C4)cc(=O)oc2c1 [compound 27, 4-(1-Adamantanemethyl)coumarin-7-O-sulfamate] | – | – | – | – | 8 | 96 | – | – | – | –
19 | CCCCCCCCCCCc1c(C)c2ccc(OS(N)(=O)=O)cc2oc1=O [compound 34, 4-Methyl-3-undecylcoumarin-7-O-sulfamate] | – | – | – | – | – | – | – | 2000 | – | –
20 | CCCCCCCCCCCCCCc1c(C)c2ccc(OS(N)(=O)=O)cc2oc1=O [compound 37, 4-Methyl 3-tetradecylcoumarin-7-O-sulfamate] | – | – | – | – | – | – | – | 10000 | – | –
21 | Cc1c(Cl)c(=O)oc2cc(OS(N)(=O)=O)ccc12 [compound 39, 3-Chloro-4-methylcoumarin-7-O-sulfamate] | 29 | 67 | 87 | – | – | – | – | – | 600 | –
22 | Cc1c(CC2CCCCC2)c(=O)oc2cc(OS(N)(=O)=O)ccc12 [compound 44, 3-Cyclohexylmethyl-4-methylcoumarin-7-O-sulfamate] | – | – | – | – | 74 | 99 | – | – | – | –
23 | Cc1c(CCC2CCCCC2)c(=O)oc2cc(OS(N)(=O)=O)ccc12 [compound 45, 3-(2-Cyclohexylethyl)-4-methylcoumarin-7-O-sulfamate] | – | – | – | – | 37 | 99 | – | – | – | –
